Assay results: patent publication US8912216B2, “Hetaryl-[1,8]naphthyridine derivatives” (Merck Patent GmbH, priority 2010, dated 2014)

Assays:
GST-ALK5 = molecular target: T1, GST-ALK5 (Homo sapiens, UniProt P36897); assay: In-vitro (enzyme) kinase assay, 384-well flashplate (Example 36); type: biochemical; conditions: GST-ALK5, GST-SMAD2 substrate, 3 mM ATP, 30° C., 45 min; read-out: TβR activity (Example 36)
T1 sequence (P36897 34-503): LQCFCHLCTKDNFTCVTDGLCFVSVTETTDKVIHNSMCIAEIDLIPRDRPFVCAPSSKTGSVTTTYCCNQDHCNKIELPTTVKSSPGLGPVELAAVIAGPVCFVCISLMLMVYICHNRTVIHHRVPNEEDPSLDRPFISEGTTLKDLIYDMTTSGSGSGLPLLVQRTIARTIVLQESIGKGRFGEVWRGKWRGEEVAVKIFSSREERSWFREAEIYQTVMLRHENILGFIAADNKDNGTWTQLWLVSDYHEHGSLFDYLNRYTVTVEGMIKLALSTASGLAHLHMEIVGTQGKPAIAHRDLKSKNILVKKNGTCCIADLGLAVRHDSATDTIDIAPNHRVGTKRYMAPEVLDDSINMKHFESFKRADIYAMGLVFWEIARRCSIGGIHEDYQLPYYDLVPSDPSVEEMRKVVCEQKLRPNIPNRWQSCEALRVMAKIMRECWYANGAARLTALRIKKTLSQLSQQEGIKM
Summary of the method: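 Radiometric flashplate assay: 31.2 nM GST-ALK5 phosphorylating 439 nM GST-SMAD2 with 3 mM ATP plus ³³P-ATP, in HEPES/MgCl2/MnCl2/DTT/BSA buffer pH 7.4, 45 min at 30 °C, 5-10 compound concentrations. EDTA stop, filtration and washing, then radioactivity counted; IC50 derived from the curve.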

[1] = test system: TGF-beta-induced phosphorylation of Smad2 and Smad3 in Mv1-Lu cells; assay: Inhibition of Smad2/3 phosphorylation in Mv1Lu cells (Example 35A); type: cell-based, mink Mustela vison; conditions: Neogale vison, Mv1-Lu cells, TGF-beta 1 5 ng/ml, phospho-Smad2/3 ELISA, read-out: TβR activity (Example 35A)
Summary of the method: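 Serum-starved (16-20 h) Mv1-Lu mink lung epithelial cells were pre-incubated 1.5 h with compound dilutions (0.2% DMSO), then stimulated 1 h with 5 ng/ml TGF-beta 1. Phospho-Smad2 (Ser465/467)/Smad3 (Ser423/425) in lysates was measured by ELISA. IC50 came from dose-response fits between stimulated and unstimulated controls.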

Row | SMILES | IC50 (GST-ALK5) | IC50 [1]
1 | Fc1ccc(Cl)cc1-c1cc(-c2cncc(-c3cnn(CCN4CCOCC4)c3)c2)c2cccnc2n1 [compound 96, 2-(5-Chloro-2-fluoro-phenyl)-4-{5-[1-(2-morpholin-4-yl-ethyl)-1H-pyrazol-4-yl]-pyridin-3-yl}-[1,8]naphthyridine] | < 100 nM | < 100 nM
2 | CN(C)CCCn1cc(-c2cncc(-c3cc(-c4cc(Cl)ccc4F)nc4ncccc34)c2)cn1 [compound 97, [3-(4-{5-[2-(5-Chloro-2-fluoro-phenyl)-[1,8]naphthyridin-4-yl]-pyridin-3-yl}-pyrazol-1-yl)-propyl]-dimethyl-amine] | < 100 nM | < 100 nM
3 | Fc1ccc(Cl)cc1-c1cc(-c2cnccc2-c2ccccc2)c2cccnc2n1 [compound 98, 2-(5-Chloro-2-fluoro-phenyl)-4-(4-phenyl-pyridin-3-yl)-[1,8]naphthyridine] | 1000 to 10000 nM | 1000 to 10000 nM
4 | Fc1ccc(Cl)cc1-c1cc(-c2cnc3ccccc3c2)c2cccnc2n1 [compound 100, 2-(5-Chloro-2-fluoro-phenyl)-4-quinolin-3-yl-[1,8]naphthyridine] | 1000 to 10000 nM | > 10000 nM
5 | Fc1ccc(Cl)cc1-c1cc(-c2cccnc2-c2ccccc2)c2cccnc2n1 [compound 101, 2-(5-Chloro-2-fluoro-phenyl)-4-(2-phenyl-pyridin-3-yl)-[1,8]naphthyridine] | > 10000 nM | > 10000 nM
6 | Fc1ccc(Cl)cc1-c1cc(-c2cncc(-c3ccncc3)c2)c2cccnc2n1 [compound 102, 4-[3,4′]Bipyridinyl-5-yl-2-(5-chloro-2-fluoro-phenyl)-[1,8]naphthyridine] | < 100 nM | 100 to 1000 nM
7 | Fc1ccc(Cl)cc1-c1cc(-c2cncc(-c3ccccn3)c2)c2cccnc2n1 [compound 103, 4-[2,3′]Bipyridinyl-5′-yl-2-(5-chloro-2-fluoro-phenyl)-[1,8]naphthyridine] | < 100 nM | 100 to 1000 nM
8 | Fc1ccc(Cl)cc1-c1cc(-c2cncc(-c3cccnc3)c2)c2cccnc2n1 [compound 104, 4-[3,3′]Bipyridinyl-5-yl-2-(5-chloro-2-fluoro-phenyl)-[1,8]naphthyridine] | < 100 nM | 100 to 1000 nM
9 | Fc1ccc(Cl)cc1-c1cc(-c2cncc(-c3ccnc(N4CCNCC4)c3)c2)c2cccnc2n1 [compound 105, 2-(5-Chloro-2-fluoro-phenyl)-4-(2′-piperazin-1-yl-[3,4′]bipyridinyl-5-yl)-[1,8]naphthyridine] | < 100 nM | < 100 nM
10 | Fc1ccc(Cl)cc1-c1cc(-c2cncc(-c3cccc(C(F)(F)F)n3)c2)c2cccnc2n1 [compound 106, 2-(5-Chloro-2-fluoro-phenyl)-4-(6-trifluoromethyl-[2,3′]bipyridinyl-5′-yl)-[1,8]naphthyridine] | 100 to 1000 nM | > 10000 nM
11 | Fc1ccc(Cl)cc1-c1cc(-c2cncc(-c3ccc(Cl)nn3)c2)c2cccnc2n1 [compound 107, 2-(5-Chloro-2-fluoro-phenyl)-4-[5-(6-chloro-pyridazin-3-yl)-pyridin-3-yl]-[1,8]naphthyridine] | 100 to 1000 nM | 1000 to 10000 nM
12 | Fc1ccc(Cl)cc1-c1cc(-c2cncc(-c3ccnc(N4CCOCC4)c3F)c2)c2cccnc2n1 [compound 108, 2-(5-Chloro-2-fluoro-phenyl)-4-(3′-fluoro-2′-morpholin-4-yl-[3,4′]bipyridinyl-5-yl)-[1,8]naphthyridine] | 100 to 1000 nM | 100 to 1000 nM
13 | Nc1nccc(-c2cncc(-c3cc(-c4cc(Cl)ccc4F)nc4ncccc34)c2)n1 [compound 109, 4-{5-[2-(5-Chloro-2-fluoro-phenyl)-[1,8]naphthyridin-4-yl]-pyridin-3-yl}-pyrimidin-2-ylamine] | < 100 nM | 100 to 1000 nM
14 | Fc1ccc(Cl)cc1-c1cc(-c2cncc(-c3cccc(-n4ccnc4)n3)c2)c2cccnc2n1 [compound 110, 2-(5-Chloro-2-fluoro-phenyl)-4-(6-imidazol-1-yl-[2,3′]bipyridinyl-5′-yl)-[1,8]naphthyridine] | > 10000 nM | > 10000 nM
15 | COc1cccc(-c2cncc(-c3cc(-c4cc(Cl)ccc4F)nc4ncccc34)c2)n1 [compound 111, 2-(5-Chloro-2-fluoro-phenyl)-4-(6-methoxy-[2,3′]bipyridinyl-5′-yl)-[1,8]naphthyridine] | 100 to 1000 nM | 100 to 1000 nM
16 | CC(C)(C)OC(=O)Nc1cc(-c2cncc(-c3cc(-c4cc(Cl)ccc4F)nc4ncccc34)c2)ccn1 [compound 112, {5-[2-(5-Chloro-2-fluoro-phenyl) [1,8]naphthyridin-4-yl]-[3,4′]bipyridinyl-2′-yl}-carbamic acid tert-butyl ester] | 100 to 1000 nM | 100 to 1000 nM
17 | CN1CCN(c2ccc(-c3cncc(-c4cc(-c5cc(Cl)ccc5F)nc5ncccc45)c3)nn2)CC1 [compound 113, 2-(5-Chloro-2-fluoro-phenyl)-4-{5-[6-(4-methyl-piperazin-1-yl)-pyridazin-3-yl]-pyridin-3-yl}-[1,8]naphthyridine] | < 100 nM | < 100 nM
18 | CN1CCN(c2ccc(-c3cncc(-c4cc(-c5cc(F)ccc5F)nc5ncccc45)c3)cc2)CC1 [compound 114, 2-(2,5-Difluoro-phenyl)-4-{5-[4-(4-methyl-piperazin-1-yl)-phenyl]-pyridin-3-yl}-[1,8]naphthyridine] | < 100 nM | < 100 nM
19 | CC(=O)Nc1cccc(-c2cncc(-c3cc(-c4cc(Cl)ccc4F)nc4ncccc34)c2)n1 [compound 115, N-{5′-[2-(5-Chloro-2-fluoro-phenyl)-[1,8]naphthyridin-4-yl]-[2,3′]bipyridinyl-6-yl}-acetamide] | < 100 nM | 100 to 1000 nM
20 | CN1CCN(c2cccc(-c3cncc(-c4cc(-c5cc(Cl)ccc5F)nc5ncccc45)c3)c2)CC1 [compound 116, 2-(5-Chloro-2-fluoro-phenyl)-4-{5-[3-(4-methyl-piperazin-1-yl)-phenyl]-pyridin-3-yl}-[1,8]naphthyridine] | < 100 nM | < 100 nM
21 | CN1CCN(c2ccc(-c3cc(-c4cc(-c5cc(Cl)ccc5F)nc5ncccc45)cnn3)cc2)CC1 [compound 117, 2-(5-Chloro-2-fluoro-phenyl)-4-{6-[4-(4-methyl-piperazin-1-yl)-phenyl]-pyridazin-4-yl}-[1,8]naphthyridine] | 100 to 1000 nM | 100 to 1000 nM
22 | CN(C)CCNC(=O)c1cccc(-c2cncc(-c3cc(-c4cc(Cl)ccc4F)nc4ncccc34)c2)c1 [compound 118, 3-{5-[2-(5-Chloro-2-fluoro-phenyl)-[1,8]naphthyridin-4-yl]-pyridin-3-yl}-N-(2-dimethylamino-ethyl)-benzamide] | < 100 nM | 100 to 1000 nM
23 | CN1CCN(c2cc(-c3cncc(-c4cc(-c5cc(Cl)ccc5F)nc5ncccc45)c3)ncn2)CC1 [compound 119, 2-(5-Chloro-2-fluoro-phenyl)-4-{5-[6-(4-methyl-piperazin-1-yl)-pyrimidin-4-yl]-pyridin-3-yl}-[1,8]naphthyridine] | 100 to 1000 nM | 100 to 1000 nM
24 | Fc1ccc(F)c(-c2cc(-c3cncc(-c4ccc(OC5CCNCC5)cc4)c3)c3cccnc3n2)c1 [compound 120, 2-(2,5-DifIuoro-phenyl)-4-{5-[4-(piperidin-4-yloxy)-phenyl]-pyridin-3-yl}-[1,8]naphthyridine] | < 100 nM | < 100 nM
25 | CN1CCN(c2ccc(-c3cncc(-c4cc(-c5cc(F)ccc5F)nc5ncccc45)c3)cn2)CC1 [compound 121, 2-(2,5-Difluoro-phenyl)-4-[6′-(4-methyl-piperazin-1-yl)-[3,3′]bipyridinyl-5-yl]-[1,8]naphthyridine] | < 100 nM | 100 to 1000 nM
26 | CC(=O)Nc1ccc(-c2cncc(-c3cc(-c4cc(Cl)ccc4F)nc4ncccc34)c2)nn1 [compound 122, N-(6-{5-[2-(5-Chloro-2-fluoro-phenyl)-[1,8]naphthyridin-4-yl]-pyridin-3-yl}-pyridazin-3-yl)-acetamide] | 100 to 1000 nM | 100 to 1000 nM
27 | CCN1CCC(c2ccc(-c3cncc(-c4cc(-c5cc(F)ccc5F)nc5ncccc45)c3)cc2)CC1 [compound 123, 2-(2,5-Difluoro-phenyl)-4-{5-[4-(1-ethyl-piperidin-4-yl)-phenyl]-pyridin-3-yl}-[1,8]naphthyridine] | < 100 nM | < 100 nM
28 | CCOC(=O)c1cccc(-c2cncc(-c3cc(-c4cc(Cl)ccc4F)nc4ncccc34)c2)n1 [compound 124, 5′-[2-(5-Chloro-2-fluoro-phenyl)-[1,8]naphthyridin-4-yl]-[2,3′]bipyridinyl-6-carboxylic acid ethyl ester] | 1000 to 10000 nM | 100 to 1000 nM
29 | Fc1ccccc1-c1cc(-c2cncc(-c3cccnc3)c2)c2cccnc2n1 [compound 125, 4-[3,3′]Bipyridinyl-5-yl-2-(2-fluoro-phenyl)-[1,8]naphthyridine] | 1000 to 10000 nM | 1000 to 10000 nM
